Measurements published in article PMC7960626, “Phase I study assessing the mass balance, pharmacokinetics, and excretion of [^14C]-pevonedistat, a NEDD8-activating enzyme inhibitor in patients with advanced solid tumors” (Investigational New Drugs, 2020).
“Also recorded” adds a separate entry of the source. Marks after values point to notes of the source that are not given here.

Key:
[1] = tested on: tumor cell lines including solid tumors (colon, lung) and hematological malignancies (myeloma, lymphoma); design: method as in PMID 19509147, PMID 20525923, PMID 20203261; conditions: preclinical studies; cited from earlier work
[2] = Mass balance: recovery of total radioactivity in urine and feces (part A); type: in vivo, human; conditions: post dose; single IV dose 25 mg/m^2
Protocol: This was a two-part (A and B), open-label, multicenter, mass balance, distribution, metabolism, excretion (DME) study in adult patients with advanced solid tumors. In part A, patients received a single IV infusion of [^14C]-pevonedistat 25 mg/m^2 (containing approximately 60–85 µCi, or 2.22–3.145 MBq, of total radioactivity) at a single center (Duna Medical Center, Budapest, Hungary). Patients were required to stay at the part A study site for approximately 8 days or until the discharge criteria were met, with a maximum estimated confinement period of 9–14 days. […]
The primary objectives of the study were to assess the mass balance (cumulative recovery of total radioactivity in urine and feces) and to characterize the PK of pevonedistat (whole blood, plasma, and urine) and total radioactivity (drug-related material; plasma and whole blood) following a single infusion of [^14C]-pevonedistat 25 mg/m^2 (part A).
Blood samples were collected for total radioactivity and PK assessments in whole blood and plasma at prespecified time points (pre dose [within 1 h before the start of the pevonedistat infusion], end of infusion, then 0.5, 1, 2, 3, 4, 8, 12, 24, 48, 72, 96, 120, 144 and 168 hours post dose). Complete urinary and fecal output were collected for analysis of PK (urine) and total radioactivity (urine and feces) throughout the confinement period until discharge criteria were met. […]

[3] = cited from earlier work
[4] = tested on: acute myeloid leukemia (AML) xenograft models; design: method as in PMID 20203261; conditions: mice; cited from earlier work
CYP3A = tested on: CYP3A; design: method as in PMID 30845347; conditions: in vitro; cited from earlier work
[5] = Safety (TEAEs, NCI CTCAE v4.03) after single dose of [^14C]-pevonedistat (part A); type: in vivo, human; conditions: for On-study deaths, patients: part A, N = 8
Protocol: This was a two-part (A and B), open-label, multicenter, mass balance, distribution, metabolism, excretion (DME) study in adult patients with advanced solid tumors. In part A, patients received a single IV infusion of [^14C]-pevonedistat 25 mg/m^2 (containing approximately 60–85 µCi, or 2.22–3.145 MBq, of total radioactivity) at a single center (Duna Medical Center, Budapest, Hungary). Patients were required to stay at the part A study site for approximately 8 days or until the discharge criteria were met, with a maximum estimated confinement period of 9–14 days. Upon completion of part A, patients had the option to participate in part B at Medical Center Hungarian Defense Forces, Budapest, Hungary. In part B, patients received treatment in 3-week cycles with either: pevonedistat 20 mg/m^2 on days 1, 3, and 5 plus carboplatin AUC5 and paclitaxel 175 mg/m^2 on day 1; or pevonedistat 25 mg/m^2 on days 1, 3, and 5 plus docetaxel 75 mg/m^2 on day 1. Treatment was administered for 12 cycles or until discontinuation criteria were met.
Blood samples were collected for total radioactivity and PK assessments in whole blood and plasma at prespecified time points (pre dose [within 1 h before the start of the pevonedistat infusion], end of infusion, then 0.5, 1, 2, 3, 4, 8, 12, 24, 48, 72, 96, 120, 144 and 168 hours post dose). Complete urinary and fecal output were collected for analysis of PK (urine) and total radioactivity (urine and feces) throughout the confinement period until discharge criteria were met. Bioanalytical assay methods are shown in the Supplementary Methods. Safety was assessed by incidence and severity of TEAEs, vital signs, physical examinations, electrocardiograms, and clinical laboratory tests, and toxicities were graded according to the National Cancer Institute Common Terminology Criteria for Adverse Events (NCI CTCAE), version 4.03. In part B, disease assessments were conducted using radiological evaluations (computed tomography [CT] scan or magnetic resonance imaging [MRI], as clinically indicated).
PK data were summarized using descriptive statistics, and the PK and mass balance parameters described in Supplementary Table S1 were calculated by non-compartmental analysis for each individual patient. Safety was assessed in all patients who received at least one dose of pevonedistat, and TEAEs were coded according to the Medical Dictionary for Regulatory Activities (MedDRA), version 20.0. Analysis of efficacy in part B was descriptive; disease response was assessed in all patients who received at least one dose of pevonedistat, had measurable disease (per entry criteria for part B), and had at least one post-baseline disease assessment. Response assessment was done by the investigator using Response Evaluation Criteria in Solid Tumors (RECIST) version 1.1. SAS version 9.4 was used for all statistical analyses.

NS(=O)(=O)OC[C@@H]1C[C@@H](n2ccc3c(N[C@H]4CCc5ccccc54)ncnc32)C[C@@H]1O [Pevonedistat]
antitumor activity in cell lines [1]: growth inhibition | time by which the majority of the radioactivity was recovered [2]: ≤ 96 h | PK linearity ([3]; dose range 25–278 mg/m^2): linear and dose-proportional | elimination half-life in plasma ([3]; patients with metastatic melanoma): approximately 10 hours | mean terminal elimination half-life ([3]; plasma, estimated across doses and schedules, 1-h IV infusion): 5 to 8 h | typical CL ([3]; population PK analysis in more than 300 patients): 31.5 L/h | effect of mild or moderate renal impairment (creatinine clearance 30–89 mL/min) on exposure ([3]; population PK analysis): does not have a clinically meaningful impact on pevonedistat exposures | disease course [4]: durable disease regression | role of CYP3A in metabolism (CYP3A): substrate of CYP3A; also recorded: major role for CYP3A | Back pain, Any grade ([5]; human, in vivo): 1 (12.5) n (%) | Back pain, Grade ≥ 3 ([5]; human, in vivo): 0 n (%) | Constipation, Any grade ([5]; human, in vivo): 1 (12.5) n (%) | Constipation, Grade ≥ 3 ([5]; human, in vivo): 0 n (%) | Dizziness, Any grade ([5]; human, in vivo): 1 (12.5) n (%) | Dizziness, Grade ≥ 3 ([5]; human, in vivo): 0 n (%) | Sarcoma, Any grade ([5]; human, in vivo): 1 (12.5) n (%) | Sarcoma, Grade ≥ 3 ([5]; human, in vivo): 1 (12.5)^a n (%) | Serious TEAEs, patients ([5]; human, in vivo): 1 (12.5) n (%) | Serious TEAEs: Drug-related, patients ([5]; human, in vivo): 0 (0.0) n (%) | Serious TEAEs: Resulting in study discontinuation, patients ([5]; human, in vivo): 0 (0.0) n (%) | TEAEs: Grade ≥ 3, patients ([5]; human, in vivo): 1 (12.5) n (%) | TEAEs: Grade ≥ 3 drug-related, patients ([5]; human, in vivo): 0 (0.0) n (%) | Urinary retention, Any grade ([5]; human, in vivo): 1 (12.5) n (%) | Urinary retention, Grade ≥ 3 ([5]; human, in vivo): 0 n (%) | Vomiting, Any grade ([5]; human, in vivo): 1 (12.5) n (%) | Vomiting, Grade ≥ 3 ([5]; human, in vivo): 0 n (%) | Serious TEAEs, patients ([5]; in vivo): no serious TEAEs | On-study deaths, patients [5]: One | On-study deaths, patients ([5]; listed as [^14C]-pevonedistat): 1 (12.5)^a n (%)
